In ChEMBL document CHEMBL1143566, “Discovery of a potent and selective inhibitor of cyclin-dependent kinase 4/6” (J Med Chem, 2005):
pIC50: −log10 of the molar value. Blank lines part the entries; values can stand above or below the molecule they belong to.

How the values were obtained:
MDA-MB-435 [1] = experiment: Inhibitory concentration was measured by the incorporation of [14C]thymidine in (human breast carcinoma) MDA-MB-435; type: functional, cell-based
[2] = target: Cyclin-dependent kinase 2/cyclin A (Homo sapiens, UniProt P24941)
Description: Inhibition of Cyclin dependent kinase 2-cyclin A

[3] = target: T1, Cyclin-dependent kinase 4/cyclin D (Homo sapiens, UniProt P11802)
Description: Inhibition of Cyclin-dependent kinase 4-cyclinD

MDA-MB-435 [4] = experiment: In vitro inhibitory concentration was measured by the incorporation of [14C]thymidine in (human breast carcinoma) MDA-MB-435 cell line; type: functional, cell-based
MDA-MB-435 [5] = experiment: Inhibitory concentration was measured by the incorporation of [14C]-thymidine in (human breast carcinoma) MDA-MB-435 cell line; type: functional, cell-based
[6] = target: Fibroblast growth factor receptor (Homo sapiens, UniProt P22607+P11362+P22455+P21802); experiment: Inhibition of Fibroblast growth factor receptor; type: protein assay
MDA-MB-468 [7] = experiment: Inhibitory concentration was measured by the incorporation of [14C]thymidine in (human breast carcinoma) MDA-MB-468 cell line; type: functional, cell-based
[8] = target: T1, Cyclin-dependent kinase 4/cyclin D; experiment: Inhibition of [gamma-32P]-ATP binding to Cyclin dependant kinase 4-cyclinD; type: protein-complex assay
[9] = Inhibition of PDGF receptor
[10] = target: Cyclin-dependent kinase 2/cyclin E (Homo sapiens, UniProt P24941); experiment: Inhibition of Cyclin dependent kinase 2-cyclin E; type: protein-complex assay
MDA-MB-468 [11] = experiment: In vitro inhibitory concentration was measured by the incorporation of [14C]thymidine in (human breast carcinoma) MDA-MB-468 cell line; type: functional, cell-based
[12] = Inhibition of Cyclin dependent kinase 2-cyclinA

pIC50 (MDA-MB-435 [1]): 6.66
Structure (SMILES): CC(=O)c1c(C)c2cnc(Nc3ccc(N4CCOCC4)cn3)nc2n(C2CCCC2)c1=O

pIC50 [2]: < 5.30
pIC50 [3]: 7.52
pIC50 (MDA-MB-435 [4]): 5.69
Structure (SMILES): CC(=O)c1c(C)c2cnc(Nc3ccc(N4C(C)COCC4C)cn3)nc2n(C2CCCC2)c1=O (stereo unspecified)

pIC50 (MDA-MB-435 [5]): 7.15
Structure (SMILES): CC(=O)c1c(C)c2cnc(Nc3ccc(N4CCCNCC4)cn3)nc2n(C2CCCC2)c1=O

Structure (SMILES): O=c1c(Br)cc2cnc(Nc3ccc(N4CCNCC4)cc3)nc2n1C1CCCC1
pIC50 (MDA-MB-435 [5]): 7.70
pIC50 ([6]; read-out: IC50): 7.10
pIC50 (MDA-MB-468 [7]): 6.22

pIC50 [8]: 7.43
Structure (SMILES): CCOCCOc1cc2cnc(Nc3ccc(N4CCNCC4)cn3)nc2n(C2CCCC2)c1=O

pIC50 (MDA-MB-435 [5]): 7.05
pIC50 [9]: < 5.30
pIC50 [2]: < 5.30
IC50 [6]: > 5 µM
pIC50 [10]: < 5.30
pIC50 (MDA-MB-468 [7]): < 5.52
Structure (SMILES): O=c1c(Br)cc2cnc(Nc3ccc(N4CCNCC4)cn3)nc2n1C1CCCC1

pIC50 (MDA-MB-435 [1]): 5.85
Structure (SMILES): Cc1c(Br)c(=O)n(C2CCCC2)c2nc(Nc3ccc(N4CCC(O)CC4)cn3)ncc12

pIC50 (MDA-MB-435 [5]): 6.72
pIC50 [2]: < 5.30
pIC50 [3]: 7.72
Structure (SMILES): Nc1cc2cnc(Nc3ccc(N4CCNCC4)cn3)nc2n(C2CCCC2)c1=O

pIC50 (MDA-MB-435 [5]): 6.54
Structure (SMILES): Cc1cc2cnc(Nc3ccc(N4CCNCC4)cn3)nc2n(C2CCCC2)c1=O

pIC50 (MDA-MB-435 [5]): 5.96
Structure (SMILES): O=c1c(F)cc2cnc(Nc3ccc(N4CCNCC4)cn3)nc2n1C1CCCC1

pIC50 (MDA-MB-435 [5]): 6.00
Structure (SMILES): CCOCc1cc2cnc(Nc3ccc(N4CCNCC4)cn3)nc2n(C2CCCC2)c1=O

Structure (SMILES): CC(C)n1c(=O)ccc2cnc(Nc3ccc(N4CCNCC4)cn3)nc21
pIC50 [3]: < 5.30

pIC50 (MDA-MB-435 [1]): 6.38
Structure (SMILES): CC(=O)c1c(C)c2cnc(Nc3ccc(N4CCNC(C)(C)C4)cn3)nc2n(C2CCCC2)c1=O

pIC50 [3]: 7.31
Structure (SMILES): CCOC(=O)c1c(C)c2cnc(Nc3ccc(N4CCNCC4)cn3)nc2n(C2CCCC2)c1=O

pIC50 [2]: 6.64
pIC50 (MDA-MB-468 [11]): 5.96
pIC50 (MDA-MB-435 [4]): 7.52
Structure (SMILES): CC(=O)c1c(C)c2cnc(Nc3ccc(N4CCNCC4)cc3)nc2n(C2CCCC2)c1=O

pIC50 (MDA-MB-435 [5]): 6.48
pIC50 [2]: 5.42
pIC50 [3]: 7.89
Structure (SMILES): COCc1cc2cnc(Nc3ccc(N4CCNCC4)cn3)nc2n(C2CCCC2)c1=O

pIC50 (MDA-MB-435 [1]): 6.24
Structure (SMILES): CC(=O)c1c(C)c2cnc(Nc3ccc(N4CC(C)NC(C)C4)cn3)nc2n(C2CCCC2)c1=O (stereo unspecified)

pIC50 [12]: 7.92
Structure (SMILES): O=c1ccc2cnc(Nc3ccccc3)nc2n1C1CCCC1

pIC50 (MDA-MB-435 [1]): 5.71
Structure (SMILES): CC(=O)c1c(C)c2cnc(Nc3ccc(N4CCCCC4)cn3)nc2n(C2CCCC2)c1=O

pIC50 (MDA-MB-435 [5]): 6.25
Structure (SMILES): O=c1c(CO)cc2cnc(Nc3ccc(N4CCNCC4)cn3)nc2n1C1CCCC1

pIC50 (MDA-MB-435 [1]): 6.24
Structure (SMILES): Cc1c(Br)c(=O)n(C2CCCC2)c2nc(Nc3ccc(N4CC(C)NC(C)C4)cn3)ncc12 (stereo unspecified)

pIC50 [2]: 5.69
pIC50 [3]: 7.29
Structure (SMILES): COCCN(CCOC)c1ccc(Nc2ncc3c(C)c(C(C)=O)c(=O)n(C4CCCC4)c3n2)nc1

pIC50 (MDA-MB-435 [5]): 6.47
Structure (SMILES): CC(=O)c1c(C)c2cnc(Nc3ccc(N4CCC(N)C4)cn3)nc2n(C2CCCC2)c1=O (stereo unspecified)

pIC50 (MDA-MB-435 [5]): 5.67
Structure (SMILES): COCCOCc1cc2cnc(Nc3ccc(N4CCNCC4)cn3)nc2n(C2CCCC2)c1=O

pIC50 (MDA-MB-435 [5]): 6.49
Structure (SMILES): CC(=O)c1c(C)c2cnc(Nc3ccc(N4CCN(C)CC4)cn3)nc2n(C2CCCC2)c1=O

pIC50 (MDA-MB-435 [5]): 6.80
pIC50 (MDA-MB-468 [7]): < 5.52
Structure (SMILES): CC(=O)c1c(C)c2cnc(Nc3ccc(N4CCNCC4)cn3)nc2n(C2CCCC2)c1=O [PALBOCICLIB]

pIC50 (MDA-MB-435 [5]): 5.97
pIC50 [2]: < 5.30
pIC50 [3]: 7.66
Structure (SMILES): CCc1cc2cnc(Nc3ccc(N4CCNCC4)cn3)nc2n(C2CCCC2)c1=O

Structure (SMILES): Cc1c(Br)c(=O)n(C2CCCC2)c2nc(Nc3ccc(N4CCCNCC4)cn3)ncc12
pIC50 [2]: < 5.30
pIC50 [3]: < 5.30

Structure (SMILES): Cc1c(Br)c(=O)n(C2CCCC2)c2nc(Nc3ccccn3)ncc12
pIC50 [3]: < 5.30

pIC50 (MDA-MB-435 [1]): 5.56
Structure (SMILES): CC(=O)c1cc2cnc(Nc3ccc(N4CCNCC4)cn3)nc2n(C2CCCC2)c1=O

pIC50 (MDA-MB-435 [5]): 6.70
Structure (SMILES): CC(=O)c1c(C)c2cnc(Nc3ccc(N4CCC(O)CC4)cn3)nc2n(C2CCCC2)c1=O
